Legend:
[1] = system: IL-1β, TNF-α, IL-33, MMP-9, TIMP-1 and PGE2 in serum; assay: Serum cytokine levels by ELISA in AIA rats; format: in vivo, Sprague-Dawley (SD) rats; conditions: 42 days treatment, versus vehicle-treated AIA rats
Procedure: Disease severity and progression were evaluated by measurements of both hind paw volumes with a plethysmometer chamber (Yiyan technology, Jinan, China) and body weight with a 0.1 g precision balance (Sartorius AG, Göttingen, Germany) every two or three days after arthritis induction. For evaluation the arthritic scoring, the lesions of four paws of each rat (i.e., the arthritic signs) were graded by two separate investigators with a semi-quantitative scale: 0 (normal), 4-8 (mild changes), 8-12 (moderate changes), and 12-16 (severe changes) (van Eden W., et. al., J. E. Coligan, Editor. 2001, John Wiley: New York. p. 1-11). Erythrocyte sedimentation rate (ESR) was determined with ICSH (International Council for Standardization in Hematology) selected method with little modifications at day 42. Briefly, 120 μl of blood sample was taken directly and put into 30 μl of 0.109 mol/L sodium citrate, mixed well, and then transferred into a 1.0 mm×100 mm capillary tube (West China Medical University, ChengDu, China). The tubes were held obliquely at an angle of […] and the erythrocyte sedimentation rate was recorded at 15 min. The cytokines levels including IL-1β, TNF-α, IL-17, IL-33, MMP-9, TIMP-1 and PGE2 in serum were measured using commercially available ELISA kits according to the manufacturers instructions. At the end of the experiments, rat knee images were measured (mean of three readings per knee, Meinaite digital calliper, ShangHai, China) using a IVIS Lumina XRMS Series (PerkinElmer, America) (Esser, R. E., et al., Arthritis Rheum, 1995, 38(1): p. 129-38).

[2] = system: key enzymes involved in lipid metabolism in liver; assay: Real-time PCR and Western blot of lipid metabolism enzymes in liver of AIA rats; format: in vivo, Sprague-Dawley (SD) rats
Procedure: Total RNA was isolated from the frozen liver of the AIA model using TRIzol® Reagent (Life technology, USA). mRNA was purified by binding to poly(dT) magnetic beads using Dynabeads® mRNA DIRECT™ Kit (Life technology, Norway) and reverse transcribed using SuperScript® III reverse transcriptase (Invitrogen, California, USA) as described by the manufacturer. Quantitative real-time PCR was performed using SYBR Green (Sigma-Aldrich, Louis, USA) on the ViiA™ 7 Real-Time PCR System (Applied Biosystems, FosterCity, USA). Quantitative RT-PCR analysis was performed using SYBR Green reagents and ViiA™ 7 Real-Time PCR System. Gene expression levels were calculated from cycle threshold (Ct) values and normalized with control gene GAPDH.
Liver tissue homogenates of AIA and MCD animal models were lysed in RIPA buffer (50 mM pH 7.4 Tris, 150 mM NaCl, 1% Triton X-100, 1% sodium deoxycholate, 0.1% SDS, sodium orthovanadate, sodium fluoride and EDTA) containing protease inhibitor cocktails (Roche Life Science, USA). Protein concentration was determined using the BCA protein assay kit (BIO-RAD, USA). Equal amounts of total protein were resolved using SDS-PAGE and transferred onto PVDF membranes (Millipore, Darmstadt, Germany). After incubation in a blocking solution containing with 5% (w/v) skim milk (Nestle Carnation, New Zealand) in TBST buffer (10 mM tris-buffered saline and 0.1% Tween20) for 1 h at room temperature and incubated with primary antibodies overnight at 4° C. The membranes were washed three times with 1×TBST solutions and incubated with the appropriate secondary antibodies at room temperature for 45 min, and subsequently visualized with an enhanced chemiluminescence detection kit (SuperSignal™ West Pico Chemiluminescent Substrate, Thermo Scientific, USA). β-actin was used as the loading control for the experimental data analysis.

COc1cc([C@H]2Oc3cc([C@H]4Oc5cc(O)cc(O)c5C(=O)[C@@H]4O)ccc3O[C@@H]2CO)ccc1O (stereo in doubt) [Silybin]
serum level of IL-1β [1]: significant decrease
serum level of MMP-9 [1]: significant decrease
serum level of PGE2 [1]: significant decrease
serum level of TIMP-1 [1]: significant decrease
serum level of TNF-α [1]: significant decrease
expression of aP2 in the liver ([2]; AIA rats liver): reduced
mRNA and/or protein expression of LPL, CYP7A1, and SREBP1 in liver ([2]; AIA rats liver): greatly repressed
overexpression of SREBP1 ([2]; AIA rats liver): not modulated
increased mRNA levels of hepatic lipogenesis genes (SREBP1, LXR, FXR) ([2]; AIA rats liver, real-time PCR): attenuated
changes of key lipogenic enzyme in both gene and protein levels ([2]; AIA rats liver, real-time PCR and Western blot): ameliorated changes
mRNA level of LPL in liver ([2]; AIA rats, real-time PCR, increase in the AIA model group): reversed

— US20180289666A1, “FLAVONOLIGNANS FOR TREATMENT OF AUTOIMMUNE INFLAMMATORY DISEASES” (Macau University of Science and Technology, priority 2017, published 2018)
